Laboratory results from the NIST ThermoML archive (doi:10.1016/j.jct.2018.07.025).
Numbers after ± are expanded uncertainties.

Tests used:
[1] = Crystal; DTA
[2] = Molar enthalpy of transition or fusion; settings: Crystal; DSC

Row | Compound | Normal melting temperature [1] [°C] | Molar enthalpy of transition or fusion [2] [kcal/mol]
1 | COC(=O)N(O)c1ccccc1COc1ccn(-c2ccc(Cl)cc2)n1 | 143.30 ± 1.1 | 12.3 ± 0.311
2 | COC(=O)N(OC)c1ccccc1COc1ccn(-c2ccc(Cl)cc2)n1 [Pyraclostrobin] | 60.60 ± 1.1 | 7.22 ± 0.239
